Experimental findings from EP0038629A1, “Virazole derivatives, process for their preparation and use as antiviral agents” (priority 1980, dated 1981) are described below.

Series [1] deals with influenza A/Port Chalmers/l/73 (H3N2) virus. The series can be described thus: Diffusion test (plaque inhibition zone). Type of series: cell-based. The settings on record: diameter of plaque-free zone, 0.02 ml of 1 mg/ml solution in 6 mm well, infected MDCK cell monolayers; for zone of inhibition at 1000 µg/mL: Influenza A virus, H3N2, read-out: Active Zone. The method, then: Diffusion Test. 10 mg/ml solutions of the compounds in water were diluted to a concentration of 1 mg/ml with Eagle's minimum essential medium and 0.02 ml introduced into wells 6mm in diameter cut into an agar layer above influenza A/Port Chalmers/l/73 (H3N2) virus infected MDCK cell monolayers. An infection level giving an even distribution of subconfluent plaques was used. The diameters of zones around the wells free from virus induced plaques (inhibition zones) and diameters of zones in which cytotoxicity was apparent are reported.

For series [2], the system named is influenza A/Port Chalmers/1/73 (H3N2) virus. The series can be described thus: Plaque reduction assay. Type of series: cell-based. The settings on record: MDCK cells; for inhibition at 1.3 µM / inhibition at 4.1 µM / inhibition at 13 µM / inhibition at 41 µM / inhibition at 130 µM / inhibition at 410 µM: Influenza A virus, H3N2, read-out: % Plaque Reduction at Concentration Given. An excerpt:
More accurate quantitation of antiviral activity was achieved by incorporated of concentrations of the test compound varying from 1.3 x 10^-6M to 4.1 x 10^-4M into the agar overlay above the influenza A/Port Chalmers/1/73 (H3N2) virus infected MDCK cell monolayers. The % reduction in the number of virus induced plaques at each compound concentration is given below.
For orientation: Plaque reduction counts the foci of infection that form in a cell layer.

Another series concerns MDCK cell monolayers. Conditions: diameter of zone with apparent cytotoxicity; 0.02 ml of 1 mg/ml solution in 6 mm well.

With “1-[β-D-(5'-succinyl-2',3'-carbonyl)ribofuranosyl]-3-carbamoyl-1,2,4-triazole amantadine salt [Compound 6]”, the “Active Zone” value in series [1] is given as 55 mm. The “% Plaque Reduction at Concentration Given” value in series [2] (0.13 x 10^-5 M in agar overlay, 1.3 µM) came to 44%; in series [2] (0.41 x 10^-5 M in agar overlay, 4.1 µM), 63%; in series [2] (1.3 x 10^-5 M in agar overlay, 13 µM), 89%; in series [2] (4.1 x 10^-5 M in agar overlay, 41 µM), 100%; in series [2] (13 x 10^-5 M in agar overlay, 130 µM) it was 100%; in series [2] (41 x 10^-5 M in agar overlay, 410 µM) it was 100%. Besides, the “Toxic Zone” value with MDCK cell monolayers worked out at 0 mm.
`NC(=O)c1ncn([C@@H]2O[C@H](CO)[C@@H](O)[C@H]2O)n1` [Compound 1, 1-β-D-ribofuranosyl-3-carbamoyl-1,2,4-triazole, reference compound]: the zone of inhibition at 1000 µg/mL in series [1] is 28 mm. Further, in series [2] (0.13 x 10^-5 M in agar overlay), the inhibition at 1.3 µM came to 0%. In series [2] (0.41 x 10^-5 M in agar overlay), the inhibition at 4.1 µM is 43%. Also, the inhibition at 13 µM in series [2] (1.3 x 10^-5 M in agar overlay) was 94%. In addition, in series [2] (4.1 x 10^-5 M in agar overlay), the inhibition at 41 µM stood at 100%. For the same molecule, in series [2] (13 x 10^-5 M in agar overlay), the inhibition at 130 µM is 100%. Moreover, in series [2] (41 x 10^-5 M in agar overlay), the inhibition at 410 µM was found to be 100%. The “Toxic Zone” value in the series with MDCK cell monolayers was 0 mm.
As for `NC(=O)c1ncn([C@@H]2O[C@H](COC(=O)CCC(=O)O)[C@H]3OC(=O)O[C@H]32)n1` [Compound 5, 1-[β-D-(5'-succinyl-2',3'-carbonyl)ribofuranosyl]-3-carbamoyl-1,2,4,-triazole], the zone of inhibition at 1000 µg/mL in series [1] amounted to 17 mm. In series [2] (0.13 x 10^-5 M in agar overlay), the inhibition at 1.3 µM worked out at 0%. Besides, in series [2] (0.41 x 10^-5 M in agar overlay), the inhibition at 4.1 µM came out at 0%. Moreover, the inhibition at 13 µM in series [2] (1.3 x 10^-5 M in agar overlay) was 0%. The inhibition at 41 µM in series [2] (4.1 x 10^-5 M in agar overlay) is 0%. For the same molecule, in series [2] (13 x 10^-5 M in agar overlay), the inhibition at 130 µM was 0%. The inhibition at 410 µM in series [2] (41 x 10^-5 M in agar overlay) was determined as 0%. Also, in the series with MDCK cell monolayers, the “Toxic Zone” value turned out to be 0 mm.
